Assays:
Format in all cases: in vivo, human
[1] = tested on: active CatG; assay: Active CatG concentration in patients' sputum samples (kinetic CatG assay); settings: for % reduction from baseline in sputum samples, active CatG: week 4, reduction in geometric mean
Procedure: CatG activity was measured in an enzymatic assay using an exogenous peptide substrate. Cleavage of the substrate generated the chromophore or fluorophore reaction product, p-Nitroaniline (pNA), 6-Carboxytetramethylrhodamine (6-TAMRA) or 7-Methoxycoumarin-4-acetic acid (MCA). The initial rate of this reaction is proportional to the amount of active CatG in a sample and was measured in absorbance (ABS) or fluorescence (RFU), depending on the substrate, and converted to the concentration of active CatG in the sample. Specifically, standards were created via serial dilution of stock human CatG protein (Sigma, Cat. No C4428-.25UN) in a standard diluent which matched the ratio of lysis buffer to Enzyme Buffer (sample diluent) of the sample dilutions on plate. Sample dilutions were created on the plate using Enzyme Buffer as the diluent and/or run neat. […] The plate was immediately read at appropriate wavelength according to Table 1B post substrate addition in kinetic mode every 5 minutes for 1.5 hours at 37° C. on a BioTek's Synergy Neo or BioTek's Synergy HIM plate reader with Gen5 Software. […]
(§1) In the trial, subjects were randomized in a 1:1:1 ratio to 3 treatment arms to receive either (i) 10 mg brensocatib once daily; (ii) 25 mg brensocatib once daily, or (iii) matching placebo once daily. […] The time to the first pulmonary exacerbation (primary end point), the rate of pulmonary exacerbations (secondary end point), change in concentration of active NE in sputum, and safety were assessed. […]
In this example, we further determined the changes from baseline in the concentrations of active PR3 and CatG in the same sputum samples obtained from the patients in the three treatment arms using the kinetic PR3 and CatG assays described in the previous examples, and compared the changes with those of active NE. Additionally, we extracted NE and PR3 from the white blood cells (WBCs) derived from the patients' blood samples, and determined the changes from baseline in the concentrations of active NE and PR3 in the WBC samples using the methods described in Example 7. […]

[2] = tested on: active PR3; assay: Active PR3 concentration in patients' sputum samples (kinetic PR3 assay); settings: for % reduction from baseline in sputum samples, active PR3: week 4, reduction in geometric mean
Procedure: Except for using an exogenous peptide substrate specific for PR3 instead of NE, the PR3 kinetic assay is based on the same principle as the NE kinetic assay described above. Cleavage of PR3 Substrate by PR3 present in the sample generated the fluorophore reaction product 2-Aminobenzoyl or Anthraniloyl (Abz). The initial rate of this reaction, which is proportional to the amount of active PR3 in the sample, was measured in RFU and converted to the concentration of active PR3 in the sample. Specifically, standards were created via serial dilution of Human PR3 Stock Protein (Sigma, Cat. No SRP6309-25UG, see Table 1A) in a standard diluent which matched the ratio of lysis buffer to Enzyme Buffer (sample diluent) of the sample dilutions on a multi-well plate. Sample dilutions were created on the plate using Enzyme Buffer as the diluent. A 1:20 dilution of either DMSO or PR3 inhibitor (Abcam, Cat. No ab146184, final concentration 500 μM) in Assay Buffer was added to all wells and allowed to incubate at 37° C. for 15 minutes. […] The plate was immediately read at 340/430 nm (Excitation/Emission) post substrate addition in kinetic mode every 5 minutes for up to 3 hours (minimum 30 minutes) at 37° C. on a BioTek Gen5 Plate Reader. The raw data of the readings were exported into an Excel file for data analysis described below.
as §1
(§2) In this example, we further determined the changes from baseline in the concentrations of active PR3 and CatG in the same sputum samples obtained from the patients in the three treatment arms using the kinetic PR3 and CatG assays described in the previous examples, and compared the changes with those of active NE. […]

[3] = tested on: patients with non-cystic fibrosis bronchiectasis (NCFBE); assay: Phase 2 randomized, double-blind, placebo-controlled trial: pulmonary exacerbations; settings: for reduction in the frequency of pulmonary exacerbations as compared to placebo: once daily 24 weeks; for time to the first pulmonary exacerbation (primary end point): vs placebo
From the text: We have conducted a phase 2, randomized, double-blind, placebo-controlled trial to assess the efficacy, safety and tolerability, and pharmacokinetics of (2S)—N-{(1S)-1-cyano-2-[4-(3-methyl-2-oxo-2,3-dihydro-1,3-benzoxazol-5-yl) phenyl] ethyl}-1,4-oxazepane-2-carboxamide (brensocatib) administered once daily for 24 weeks in patients with non-cystic fibrosis bronchiectasis (NCFBE). See the details and results of the trial in N Engl J Med. 383(22):2127-2137 (2020); incorporated herein by reference in its entirety for all purposes.
In the trial, subjects were randomized in a 1:1:1 ratio to 3 treatment arms to receive either (i) 10 mg brensocatib once daily; (ii) 25 mg brensocatib once daily, or (iii) matching placebo once daily. Following a screening visit (Visit 1) and a screening period of up to 6 weeks, subjects were randomized at Visit 2 (Day 1, “Baseline”) and returned thereafter for study visits at 2 weeks (Visit 3), 4 weeks (Visit 4), 8 weeks (Visit 5), 12 weeks (Visit 6), 16 weeks (Visit 7), 20 weeks (Visit 8), 24 weeks (Visit 9, end of treatment) and 28 weeks (Visit 10, end of study). During each visit, assessments and procedures were performed, including collection of blood and sputum samples at baseline and weeks 2, 4, 12, 24, and 28 for biomarker assessment. Study treatment occurred between Visits 2-9. The time to the first pulmonary exacerbation (primary end point), the rate of pulmonary exacerbations (secondary end point), change in concentration of active NE in sputum, and safety were assessed. […] Specifically, patients treated with brensocatib experienced a 36% reduction in the 10 mg arm (p=0.04) and a 25% reduction in the 25 mg arm (p=0.17).

[4] = tested on: active NE; assay: Active NE concentration in patients' WBC samples (kinetic NE assay)
Procedure: (§3) In the NE kinetic assay, an exogenous peptide substrate with high specificity for NE (shown in Table 1A) was cleaved by NE present in the sample, generating a fluorophore reaction product 7-amino 4-methyl coumarin (AMC). The initial rate of this reaction, which is proportional to the amount of active NE in the sample, was measured in relative fluorescence units (RFU) and converted to the concentration of active NE in the sample. Specifically, standards were created via serial dilution of Human NE Stock Protein (Sigma, Cat. No E8140-1UN, see Table 1A) in a standard diluent, which matched the ratio of lysis buffer to Enzyme Buffer (sample diluent) of the sample dilutions on a multi-well plate. Sample dilutions were created on the plate using Enzyme Buffer as the diluent. A 1:25 dilution of either DMSO or NE inhibitor (Abcam, Cat. No ab142154, final concentration 80 μM) in Assay Buffer was added to all wells and allowed to incubate at 37° C. for 15 minutes. […] The plate was immediately read at 350/450 nm (Excitation/Emission) post substrate addition in kinetic mode every 5 minutes for up to 3 hours (minimum 30 minutes) at 37° C. on a BioTek Gen5 Plate Reader. The raw data of the readings were exported into an Excel file for data analysis described below.
(§4) After NE and PR3 are extracted from a WBC pellet using a multi-step repeated pellet lysis process, total NE and PR3 activity in cell lysates may be determined by individually assaying each cell lysate from each lysis step for the enzyme activity and calculating the total activity. Alternatively, the total activity may be determined by pooling the cell lysates for a single NE or PR3 activity assay. […]
as §1

[5] = tested on: active PR3; assay: Active PR3 concentration in patients' WBC samples (kinetic PR3 assay); settings: for % reduction from baseline in WBC samples, active PR3: week 4, reduction in arithmetic mean
Procedure: Except for using an exogenous peptide substrate specific for PR3 instead of NE, the PR3 kinetic assay is based on the same principle as the NE kinetic assay described above. Cleavage of PR3 Substrate by PR3 present in the sample generated the fluorophore reaction product 2-Aminobenzoyl or Anthraniloyl (Abz). The initial rate of this reaction, which is proportional to the amount of active PR3 in the sample, was measured in RFU and converted to the concentration of active PR3 in the sample. Specifically, standards were created via serial dilution of Human PR3 Stock Protein (Sigma, Cat. No SRP6309-25UG, see Table 1A) in a standard diluent which matched the ratio of lysis buffer to Enzyme Buffer (sample diluent) of the sample dilutions on a multi-well plate. Sample dilutions were created on the plate using Enzyme Buffer as the diluent. A 1:20 dilution of either DMSO or PR3 inhibitor (Abcam, Cat. No ab146184, final concentration 500 μM) in Assay Buffer was added to all wells and allowed to incubate at 37° C. for 15 minutes. Addition of DMSO was used as a placeholder in case future testing required addition of inhibitors for subtraction of nonspecific activity-induced cleavage. Following incubation, PR3 Substrate (Abz-VADCADQ-Lys(DNP), final concentration 100 μM) diluted in Assay Buffer was added to the sample and control wells in that order, and briefly mixed via pipetting 2-3 times. The plate was immediately read at 340/430 nm (Excitation/Emission) post substrate addition in kinetic mode every 5 minutes for up to 3 hours (minimum 30 minutes) at 37° C. on a BioTek Gen5 Plate Reader. The raw data of the readings were exported into an Excel file for data analysis described below.
as §4

[6] = tested on: active NE; assay: Active NE concentration in patients' sputum samples; settings: for % reduction from baseline in sputum samples, active NE: week 4, reduction in geometric mean
Procedure: as §3, §1, §2

Cn1c(=O)oc2ccc(-c3ccc(C[C@@H](C#N)NC(=O)[C@@H]4CNCCCO4)cc3)cc21 [brensocatib, (2S)—N-{(1S)-1-cyano-2-[4-(3-methyl-2-oxo-2,3-dihydro-1,3-benzoxazol-5-yl)phenyl]ethyl}-1,4-oxazepane-2-carboxamide]
change from baseline in sputum concentration of active CatG (time course) ([1]; 10 mg and 25 mg arms, FIG. 13C): reduced by brensocatib treatment by week 4 in a dose-dependent manner
% reduction from baseline in sputum samples, active CatG ([1]; 10 mg daily): 90%
% reduction from baseline in sputum samples, active CatG ([1]; 25 mg daily): 93%
change from baseline in sputum concentration of active PR3 (time course) ([2]; 10 mg and 25 mg arms, FIG. 13B): reduced by brensocatib treatment by week 4 in a dose-dependent manner
% reduction from baseline in sputum samples, active PR3 ([2]; 10 mg daily): 21%
% reduction from baseline in sputum samples, active PR3 ([2]; 25 mg daily): 53%
reduction in the frequency of pulmonary exacerbations as compared to placebo ([3]; 10 mg arm, p=0.04): 36%
time to the first pulmonary exacerbation (primary end point) ([3]; 10 mg once daily for 24 weeks, p=0.03): prolonged the time to the first exacerbation
reduction in the frequency of pulmonary exacerbations as compared to placebo ([3]; 25 mg arm, p=0.17): 25%
time to the first pulmonary exacerbation (primary end point) ([3]; 25 mg once daily for 24 weeks, p=0.04): prolonged the time to the first exacerbation
change from baseline in concentration of active NE in WBC samples (time course) ([4]; 10 mg and 25 mg arms, 24-week treatment, FIG. 14A): reduced by brensocatib treatment by week 4 in a dose-dependent manner
% reduction from baseline in WBC samples, active NE ([4]; 10 mg daily, week 4, reduction in arithmetic mean): 19%
time for reduced active NE concentrations in WBC samples to recover to baseline levels after the end of the treatment period ([4]; after 24-week treatment, FIG. 14A): about 4 weeks
change from baseline in concentration of active PR3 in WBC samples (time course) ([5]; 10 mg and 25 mg arms, FIG. 14B): reduced by brensocatib treatment to a lesser extent than the active NE concentrations
% reduction from baseline in WBC samples, active PR3 ([5]; 10 mg daily): No reduction
% reduction from baseline in WBC samples, active PR3 ([5]; 25 mg daily): 34%
change from baseline in sputum concentration of active NE (time course) ([6]; 10 mg and 25 mg arms, FIG. 13A): reduced by brensocatib treatment by week 4 in a dose-dependent manner
% reduction from baseline in sputum samples, active NE ([6]; 10 mg daily): 86%
% reduction from baseline in sputum samples, active NE ([6]; 25 mg daily): 91%
